From patent publication US11560373B2, “Compounds and their use as PDE4 activators” (Mironid Limited, priority 2018, dated 2023)

Molecular target: T1, PDE4D5 (Homo sapiens, UniProt Q08499)
T1 construct: stably expressed the full-length human PDE4D5, PDE4B1 and PDE4A4 long isoforms; made in house
Test: PDE assay, [3H]cAMP hydrolysis by HEK-PDE4D5 cell lysate cytosol fraction
Type: biochemical
Conditions: for activation at 30 µM: mean % increase in counts over basal activity
Description: HEK 293 cells were transfected with pDEST™ PDE4 expression vectors using Lipofectamine LTX/Plus reagent (Invitrogen) as outlined by the manufacturer and clonal isolates expanded to obtain cell lines that stably expressed the full-length human PDE4D5, PDE4B1 and PDE4A4 long isoforms and the full length human PDE4B2 short isoform. These were called the HEK-PDE4D5, HEK-PDE4B1, HEK-PDE4A4 and HEK-PDE4B2 cell lines, respectively.
HEK-PDE4D5 cells were seeded out in 100 mm plates and incubated at 37° C. in an atmosphere of 5% CO2, 95% air. Cell lysates were prepared using KHEM buffer [50 mM KCl, 10 mM EGTA, 50 mM HEPES (pH 7.2), 1.92 mM MgCl2].
To prepare the cell lysates, the 100 mm plates containing the cells were placed on ice and washed with ice-cold PBS (phosphate buffered saline, pH 7.4). KHEM buffer (500 μl) was added to the cells. Cells were then scraped off the plate and triturated using a needle (BD Microlance™ 0.8, 40 mm). The lysed cells were then centrifuged at 2000 rpm for 10 minutes to remove cell debris and the supernatant (cell lysate containing recombinant PDE4D5) was transferred to a fresh tube and kept on ice.
The cell lysate containing recombinant PDE4D5 was transferred into a centrifuge tube and placed into an ultracentrifuge (BECKMAN COULTER) and spun at high speed (100,000 g) for 30 minutes at 4° C. The cytosol fraction was then collected and its protein amount determined using a BCA protein assay.
PDE assays were performed in thin walled V-bottomed 96-well plates. The assays were performed at a final concentration of 10 mM Tris/5 mM MgCl2 plus PDE4D5 cell lysate cytosol fraction, containing over-expressed PDE4D5, with and without test compound. The lysate/compound mix were incubated together for 15 min at room temperature on an orbital shaker prior to addition of [^3H] cAMP (final concentration 1 μM [^3H] cAMP; Perkin Elmer) to a final volume of 50 μl per reaction. The reactions were then incubated for 10 minutes at 30° C., terminated by heating for 2 min at 95° C. and allowed to cool. Snake venom (12.5 μl of 1 mg/ml; Crotalus atrox, Sigma) was then added and the plates were agitated and incubated for a further 15 minutes at 30° C. Dowex ion exchange resin (Sigma, chloride form, 200-400 mesh; 200 μl; prepared as a 1:1 Dowex: water stock, thoroughly re-suspended and diluted 2:1 with ethanol) was then added to each well and the plates incubated for 15 min at room temperature on an orbital shaker ensuring sufficient agitation for resin suspension (550 RPM). The reaction mixture was then transferred to a 96 well filter plate (Millipore; […] pore size) and filtered into a receiving 96-well plate to remove the dowex suspension. 30 μL of the filtered solution was then transferred to the wells of an Opti-plate (Perkin Elmer) 96 well assay plate and 120 μl of Microscint 40 scintillation fluid was added. The plate was then placed on an orbital shaker for 10 min at high speed (900 RPM) to mix the sample with scintillation fluid prior to quantitation using a plate based scintillation counter (Top-Count).
The % increase in counts in the presence of test compound at a particular concentration indicates the % increase in enzyme activity at that concentration.

T1 sequence (Q08499 1-745 isoform Q08499-6): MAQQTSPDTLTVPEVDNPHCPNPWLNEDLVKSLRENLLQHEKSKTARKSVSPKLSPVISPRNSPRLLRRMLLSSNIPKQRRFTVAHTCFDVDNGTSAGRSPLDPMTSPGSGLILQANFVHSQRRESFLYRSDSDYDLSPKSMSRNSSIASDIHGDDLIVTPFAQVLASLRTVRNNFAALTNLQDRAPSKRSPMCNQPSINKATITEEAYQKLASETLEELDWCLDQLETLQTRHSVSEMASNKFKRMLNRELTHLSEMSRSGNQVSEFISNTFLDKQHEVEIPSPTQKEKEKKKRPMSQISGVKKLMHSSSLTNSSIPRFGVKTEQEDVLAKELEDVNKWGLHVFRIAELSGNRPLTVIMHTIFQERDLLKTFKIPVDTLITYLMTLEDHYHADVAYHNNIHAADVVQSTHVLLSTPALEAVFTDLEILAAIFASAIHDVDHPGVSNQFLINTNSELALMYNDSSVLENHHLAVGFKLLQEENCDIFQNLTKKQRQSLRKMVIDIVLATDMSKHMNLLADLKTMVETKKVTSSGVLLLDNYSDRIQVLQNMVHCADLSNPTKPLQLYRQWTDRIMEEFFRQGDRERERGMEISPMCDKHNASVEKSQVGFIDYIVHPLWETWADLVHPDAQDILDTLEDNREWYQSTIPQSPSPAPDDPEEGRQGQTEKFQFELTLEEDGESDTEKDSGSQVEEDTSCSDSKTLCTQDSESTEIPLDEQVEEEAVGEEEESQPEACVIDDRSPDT

| Compound | activation at 30 µM | activation of PDE4 long form PDE4D5 (FIG. 1) (dose response, FIG. 1) |
| --- | --- | --- |
| CCn1nc(-c2ccc(Cl)c(F)c2)nc1CC(=O)NCc1cccc2cn[nH]c12 [Example 4, 2-[3-(4-Chloro-3-fluorophenyl)-1-ethyl-1H-1,2,4-triazol-5-yl]-N-[(1H-indazol-7-yl)methyl]acetamide] | 32.2% |  |
| CCn1nc(-c2ccc(Cl)c(F)c2)nc1CC(=O)Nc1cc(C)on1 [Example 6, 2-[3-(4-Chloro-3-fluorophenyl)-1-ethyl-1H-1,2,4-triazol-5-yl]-N-(5-methyl-1,2-oxazol-3-yl)acetamide] | 38.5% |  |
| CCn1nc(-c2ccc(Cl)c(F)c2)nc1CC(=O)Nc1cnccn1 [Example 8, 2-[3-(4-Chloro-3-fluorophenyl)-1-ethyl-1H-1,2,4-triazol-5-yl]-N-(pyrazin-2-yl)acetamide] | 49.6% |  |
| CCn1nc(-c2ccc(Cl)c(F)c2)nc1CC(=O)NCc1ccc2[nH]c(=O)[nH]c2c1 [Example 9, 2-[3-(4-Chloro-3-fluorophenyl)-1-ethyl-1H-1,2,4-triazol-5-yl]-N-[(2-oxo-2,3-dihydro-1H-benzo[d]imidazol-5-yl)methyl]acetamide] | 55.6% |  |
| CCn1nc(-c2ccc(Cl)c(F)c2)nc1CC(=O)NCc1ccc(OC)cc1 [Example 16, 2-[3-(4-Chloro-3-fluorophenyl)-1-ethyl-1H-1,2,4-triazol-5-yl]-N-[(4-methoxyphenyl)methyl]acetamide] | 44.7% |  |
| CCn1nc(-c2ccc(Cl)c(F)c2)nc1CC(=O)NCc1ccc(OC)nc1 [Example 17, 2-[3-(4-Chloro-3-fluorophenyl)-1-ethyl-1H-1,2,4-triazol-5-yl]-N-[(6-methoxypyridin-3-yl)methyl]acetamide] | 26.8% |  |
| COc1cccc(CNC(=O)Cc2nc(-c3ccc(Cl)c(F)c3)nn2C)c1 [Example 19, 2-[3-(4-Chloro-3-fluorophenyl)-1-methyl-1H-1,2,4-triazol-5-yl]-N-[(3-methoxyphenyl)methyl]acetamide] | 87.8% |  |
| Cn1nc(-c2ccc(Cl)c(F)c2)nc1CC(=O)NCc1ccc2[nH]ncc2c1 [Example 21, 2-[3-(4-Chloro-3-fluorophenyl)-1-methyl-1H-1,2,4-triazol-5-yl]-N-[(1H-indazol-5-yl)methyl]acetamide] | 60.8% |  |
| CCn1nc(-c2ccc(Cl)c(F)c2)nc1C(C)C(=O)NCc1cccc(F)c1 (centres unmarked) [Example 24, 2-[3-(4-Chloro-3-fluorophenyl)-1-ethyl-1H-1,2,4-triazol-5-yl]-N-[(3-fluorophenyl)methyl]propanamide] | 72.2% |  |
| O=C(Cc1nc(-c2ccc(Cl)c(F)c2)nn1CC1CC1)NCc1ccc2[nH]ncc2c1 [Example 27, 2-[3-(4-Chloro-3-fluorophenyl)-1-(cyclopropylmethyl)-1H-1,2,4-triazol-5-yl]-N-[(1H-indazol-5-yl)methyl]acetamide] | 106% |  |
| CCn1nc(-c2ccc(Cl)c(OC(C)C)c2)nc1CC(=O)NCc1cc(C)nc(C)c1 [Example 35, 2-[3-(4-Chloro-3-isopropyloxyphenyl)-1-ethyl-1H-1,2,4-triazol-5-yl]-N-[(2,6-dimethylpyridin-4-yl)methyl]acetamide] | 28.5% |  |
| CCn1nc(-c2ccc(Cl)c(OC(C)C)c2)nc1CC(=O)N[C@H]1CCc2ccccc21 [Example 36, 2-[3-(4-Chloro-3-isopropyloxyphenyl)-1-ethyl-1H-1,2,4-triazol-5-yl]-N-[(1S)-2,3-dihydro-1H-inden-1-yl]acetamide] | 33% |  |
| CCn1nc(-c2ccc(Cl)c(OC(C)C)c2)nc1CC(=O)NCc1cccc(C#N)c1 [Example 37, 2-[3-(4-Chloro-3-isopropyloxyphenyl)-1-ethyl-1H-1,2,4-triazol-5-yl]-N-[(3-cyanophenyl)methyl]acetamide] | 40.2% |  |

Other lines, results leading:

| activation at 30 µM | activation of PDE4 long form PDE4D5 (FIG. 1) (dose response, FIG. 1) | Compound |
| --- | --- | --- |
| 56.1% | dose-dependent activation | CCn1nc(-c2ccc(Cl)c(F)c2)nc1CC(=O)NCc1cc(Cl)cc(Cl)c1 [Example 5, 2-[3-(4-Chloro-3-fluorophenyl)-1-ethyl-1H-1,2,4-triazol-5-yl]-N-(3,5-dichlorobenzyl)acetamide] |
| 94.1% |  | CCn1nc(-c2ccc(Cl)c(F)c2)nc1CC(=O)NCc1ccc2[nH]ncc2c1 [Example 7, 2-[3-(4-Chloro-3-fluorophenyl)-1-ethyl-1H-1,2,4-triazol-5-yl]-N-[(1H-indazol-5-yl)methyl]acetamide] |
| 136% |  | CCn1nc(-c2ccc(Cl)c(F)c2)nc1CC(=O)NCc1cc(C)cc(Cl)c1 [Example 10, 2-[3-(4-Chloro-3-fluorophenyl)-1-ethyl-1H-1,2,4-triazol-5-yl]-N-[(3-chloro-5-methylphenyl)methyl]acetamide] |
| 52.8% |  | CCn1nc(-c2ccc(Cl)c(F)c2)nc1CC(=O)NCc1cc(C)cc(F)c1 [Example 11, 2-[3-(4-Chloro-3-fluorophenyl)-1-ethyl-1H-1,2,4-triazol-5-yl]-N-[(3-fluoro-5-methylphenyl)methyl]acetamide] |
| 71.6% |  | CCn1nc(-c2ccc(Cl)c(F)c2)nc1CC(=O)NCc1cc(C)cc(C)c1 [Example 12, 2-[3-(4-Chloro-3-fluorophenyl)-1-ethyl-1H-1,2,4-triazol-5-yl]-N-[(3,5-dimethylphenyl)methyl]acetamide] |
| 28.4% |  | CCn1nc(-c2ccc(Cl)c(F)c2)nc1CC(=O)NCc1cccc(F)c1F [Example 13, 2-[3-(4-Chloro-3-fluorophenyl)-1-ethyl-1H-1,2,4-triazol-5-yl]-N-[(2,3-difluorophenyl)methyl]acetamide] |
| 142% |  | CCOc1cccc(CNC(=O)Cc2nc(-c3ccc(Cl)c(F)c3)nn2CC)c1 [Example 14, 2-[3-(4-Chloro-3-fluorophenyl)-1-ethyl-1H-1,2,4-triazol-5-yl]-N-[(3-ethoxyphenyl)methyl]acetamide] |
| 61.5% |  | CCn1nc(-c2ccc(Cl)c(F)c2)nc1CC(=O)NCc1cc(OC)cc(OC)c1 [Example 15, 2-[3-(4-Chloro-3-fluorophenyl)-1-ethyl-1H-1,2,4-triazol-5-yl]-N-[(3,5-dimethoxyphenyl)methyl]acetamide] |
| 77.8% |  | Cn1nc(-c2ccc(Cl)c(F)c2)nc1CC(=O)NCc1cc(Cl)cc(Cl)c1 [Example 18, 2-[3-(4-Chloro-3-fluorophenyl)-1-methyl-1H-1,2,4-triazol-5-yl]-N-[(3,5-dichlorophenyl)methyl]acetamide] |
| 78.6% |  | Cn1nc(-c2ccc(Cl)c(F)c2)nc1CC(=O)NCc1cccc(F)c1 [Example 20, 2-[3-(4-Chloro-3-fluorophenyl)-1-methyl-1H-1,2,4-triazol-5-yl]-N-[(3-fluorophenyl)methyl]acetamide] |
| 53.8% |  | O=C(Cc1nc(-c2ccc(Cl)c(F)c2)nn1CCO)NCc1cc(Cl)cc(Cl)c1 [Example 23, 2-[3-(4-Chloro-3-fluorophenyl)-1-(2-hydroxyethyl)-1H-1,2,4-triazol-5-yl]-N-[(3,5-dichlorophenyl)methyl]acetamide] |
| 87.5% |  | Cc1cc(CNC(=O)Cc2nc(-c3ccc(Cl)c(F)c3)nn2CC2CC2)cc(C)n1 [Example 26, 2-[3-(4-Chloro-3-fluorophenyl)-1-(cyclopropylmethyl)-1H-1,2,4-triazol-5-yl]-N-[(2,6-dimethylpyridin-4-yl)methyl]acetamide] |
| 46.3% |  | CCn1nc(-c2ccc(OC(F)(F)F)cc2)nc1CC(=O)NCc1cc(Cl)cc(Cl)c1 [Example 28, N-[(3,5-Dichlorophenyl)methyl]-2-{1-ethyl-3-[4-(trifluoromethoxy)phenyl]-1H-1,2,4-triazol-5-yl}acetamide] |
| 45.9% |  | CCn1nc(-c2ccc(C#N)cc2)nc1CC(=O)NCc1cc(Cl)cc(Cl)c1 [Example 30, 2-[3-(4-Cyanophenyl)-1-ethyl-1H-1,2,4-triazol-5-yl]-N-[(3,5-dichlorophenyl)methyl]acetamide] |
| 42.8% |  | CCOc1cc(-c2nc(CC(=O)NCc3cc(Cl)cc(Cl)c3)n(CC)n2)ccc1Cl [Example 32, 2-[3-(4-Chloro-3-ethoxyphenyl)-1-ethyl-1H-1,2,4-triazol-5-yl]-N-[(3,5-dichlorophenyl)methyl]acetamide] |
